Broadly, the EC50 is the concentration that produces a half-maximal response. The low end stands for greater potency, the high end for weaker potency.

Molecules are shown by their SMILES.

In the test the target is T1, KCNQ2/3 channels (Homo sapiens, UniProt O43525+O43526).
T1 construct: expressed in transfected cells; host or cells: CHO-K1 cells
Nature of the test: Fluorescence assay using a voltage-sensitive dye (fluorimetry). The format is cell-based. The note with it: for EC50: CHO-K1 cells expressing KCNQ2/3 channels; for Emax at 1 µM: 50 μM retigabine = 100%, CHO-K1 cells expressing KCNQ2/3, read-out: Fluorimetry % efficacy at 1 μM (50 μM retigabine = 100%). As for the experimental part: […] CHO-K1 cells expressing KCNQ2/3 channels are cultivated adherently at 37° C., 5% CO2 and 95% humidity in cell culture bottles (e.g. 80 cm^2 TC flasks, Nunc) with DMEM-high glucose (Sigma Aldrich, D7777) including 10% FCS (PAN Biotech, e.g. 3302-P270521) or alternatively MEM Alpha Medium (1×, liquid, Invitrogen, #22571), 10% foetal calf serum (FCS) (Invitrogen, #10270-106, heat-inactivated) and the necessary selection antibiotics.
Before being seeded out for the measurements, the cells are washed with a 1×DPBS buffer without Ca^2+/Mg^2+ (e.g. Invitrogen, #14190-094) and detached from the bottom of the culture vessel by means of Accutase (PAA Laboratories, #L11-007) (incubation with Accutase for 15 min at 37° C.). The cell count then present is determined using a CASY™ cell counter (TCC model, Scharfe System) in order subsequently to apply 20,000 to 30,000 cells/well/100 μl of the described nutrient medium, depending on density optimisation for the individual cell line, to 96-well measuring plates of the Corning™ CeIIBIND™ type (flat clear-bottom black polystyrene microplates, #3340). Incubation is then carried out for one hour at room temperature, without gassing or adjusting the humidity, followed by incubation for 24 hours at 37° C., 5% CO2 and 95% humidity.
The voltage-sensitive fluorescent dye from the Membrane Potential Assay Kit (Red™ bulk format part R8123 for FLIPR, MDS Analytical Technologies™) is prepared by dissolving the contents of a vessel of Membrane Potential Assay Kit Red Component A in 200 ml of extracellular buffer (ES buffer, 120 mM NaCl, 1 mM KCl, 10 mM HEPES, 2 mM CaCl2, 2 mM MgCl2, 10 mM glucose; pH 7.4). After removal of the nutrient medium, the cells are washed with 200 μl of ES buffer, then covered with a layer of 100 μl of the dye solution prepared above and incubated for 45 min at room temperature with exclusion of light.
The fluorescence measurements are carried out with a BMG Labtech FLUOstar™, BMG Labtech NOVOstar™ or BMG Labtech POLARstar™ instrument (525 nm excitation, 560 nm emission, bottom-read mode). After incubation of the dye, 50 μl of the substances to be tested in the desired concentrations, or 50 μl of ES buffer for control purposes, are introduced into separate cavities of the measuring plate and incubated for 30 min at room temperature whilst being shielded from light. The fluorescence intensity of the dye is then measured for 5 min and the fluorescence value F1 of each well is thus determined at a given, constant time. 15 μl of a […] KCl solution ([…]) are then added to each well. The change in fluorescence is subsequently measured until all relevant measured values have been obtained (mainly 5-30 min). At a given time after KCl application, a fluorescence value F2 is determined, in this case at the time of the fluorescence peak.
For calculation, the fluorescence intensity F2 is compared with the fluorescence intensity F1, and the agonistic activity of the target compound on the potassium channel is determined therefrom. F2 and F1 are calculated as follows: […]
is determined by adding to the reaction batch only the buffer solution instead of the substance to be tested, determining the value F1K of the fluorescence intensity, adding the potassium ions as described above and measuring a value F2K of the fluorescence intensity. Then F2K and F1K are calculated as follows: […]
Calculations of EC50 values are carried out with the aid of Prism v4.0 software (GraphPad Software™).

For the compound `O=C(NCc1cccs1)c1cc2ccccc2nc1SCCS(=O)(=O)c1cccc(C(F)(F)F)c1` [compound 13, N-(2-Thienylmethyl)-2-[2-[3-(trifluoromethyl)-phenyl]sulfonylethylthio]-3-quinoline carboxamide], the EC50 turned out to be 991 nM and the Emax at 1 µM was 136%.

`CCSc1nc2cc(C(F)(F)F)ccc2c(C)c1C(=O)NCc1cccc(C)c1` [compound 82]: the EC50 stood at 219 nM and the Emax at 1 µM turned out to be 108%.

For the compound `CCSc1nc2cc(C(F)(F)F)ccc2c(C)c1C(=O)NCc1ccc(C)cc1` [compound 83], the EC50 amounted to 242 nM and the Emax at 1 µM was 130%.

Take `Cc1c(C(=O)NCc2cccc(F)c2)c(SC(C)(C)C)nc2cc(C(F)(F)F)ccc12` [compound 93]: a half-maximal response (EC50) required 88 nM and the Emax at 1 µM is 157%.

`CCSc1nc2cc(C(F)(F)F)ccc2c(C)c1C(=O)NCc1ccccc1` [compound 74]: the EC50 was found to be 163 nM and the Emax at 1 µM was 128%.

For the compound `CCSc1nc2cc(C(F)(F)F)ccc2c(C)c1C(=O)NCc1nnco1` [compound 45], the Emax at 1 µM is 23%.

On to `CCSc1nc2cc(C(F)(F)F)ccc2c(C)c1C(=O)NCc1cccc(OC)c1` [compound 85], for which the midpoint of the response, the EC50, lay at 413 nM and the Emax at 1 µM was 89%.

As for `CCSc1nc2c(C(F)(F)F)cccc2c(C)c1C(=O)NCc1cccc(F)c1` [compound 136], the EC50 is 227 nM and the Emax at 1 µM amounted to 164%.

Take `CCSc1nc2cc(C)ccc2c(C)c1C(=O)NCc1ccc(F)cc1` [compound 108]: the EC50 was found to be 509 nM and the Emax at 1 µM came out at 149%.

On to `CCSc1nc2cc(C(F)(F)F)ccc2c(C)c1C(=O)NCc1ccc(C)o1` [compound 111], for which the EC50 amounted to 86 nM and the Emax at 1 µM came to 178%.

For `CCSc1nc2cc(N3CCOCC3)ccc2c(C)c1C(=O)NCc1ccc(F)cc1` [compound 135], the Emax at 1 µM was 6%.

As to `CCCCCSc1nc2cc(C(F)(F)F)ccc2c(C)c1C(=O)NCc1cccc(F)c1` [compound 50], the EC50 stood at 61 nM and the Emax at 1 µM amounted to 150%.

In the case of `CCSc1nc2cc(C(F)(F)F)ccc2c(C)c1C(=O)NCc1ccncc1` [compound 35], the EC50 amounted to 2650 nM and the Emax at 1 µM is 142%.

On to `CCSc1nc2cc(C(F)(F)F)ccc2c(C)c1C(=O)NCc1cccc(O)c1` [compound 113], for which the EC50 came out at 3990 nM and the Emax at 1 µM turned out to be 66%.

Consider `Cc1ccc(S(=O)(=O)CCSc2nc3ccccc3cc2C(=O)NCc2cccs2)cc1` [compound 17], for which the Emax at 1 µM stood at 77%.

Turning to `CCSc1nc2cc(C(F)(F)F)ccc2c(C)c1C(=O)NCc1nccs1` [compound 44], the EC50 was determined as 587 nM and the Emax at 1 µM was found to be 169%.

On to `CCSc1nc2ccc(F)cc2c(C)c1C(=O)NCc1cccc(F)c1` [compound 116], for which a half-maximal response (EC50) required 598 nM and the Emax at 1 µM stood at 147%.

Consider `CCSc1nc2cc(F)ccc2c(C)c1C(=O)NCc1ccc(F)cc1` [compound 106], for which the midpoint of the response, the EC50, lay at 216 nM and the Emax at 1 µM amounted to 143%.

`CCSc1nc2cc(OC)ccc2c(C)c1C(=O)NCc1cccc(F)c1` [compound 97]: the response was half-maximal at 622 nM (EC50) and the Emax at 1 µM turned out to be 60%.

In the case of `CCSc1nc2cc(C)ccc2c(C)c1C(=O)NCc1cccc(F)c1` [compound 107], a half-maximal effect (EC50) was put at 499 nM and the Emax at 1 µM came to 161%.

Take `CCSc1nc2cc(C(F)(F)F)ccc2cc1C(=O)NCC(C)(C)C` [compound 90]: the EC50 is 842 nM and the Emax at 1 µM came to 53%.

Consider `CCSc1nc2ccc(C(F)(F)F)cc2c(C)c1C(=O)NCc1cccc(F)c1` [compound 103], for which the EC50 amounted to 784 nM and the Emax at 1 µM was 115%.

`CCSc1nc2cc(C(F)(F)F)ccc2c(C)c1C(=O)NCC1CCCCCC1` [compound 29]: the EC50 came to 367 nM and the Emax at 1 µM is 86%.

For the compound `O=C(NCc1cccs1)c1cc2cc(C(F)(F)F)ccc2nc1SCCS(=O)(=O)c1ccccc1` [compound 8, 2-[2-(Phenylsulfonyl)ethylthio]-N-(2-thienyl-methyl)-6-(trifluoromethyl)-3-quinoline carboxamide], the Emax at 1 µM stood at 46%.

As for `CCSc1nc2cccc(F)c2c(C)c1C(=O)NCc1ccc(F)cc1` [compound 124], the Emax at 1 µM is 8%.

As to `CCSc1nc2cc(C(F)(F)F)ccc2c(Cl)c1C(=O)NCc1cccc(F)c1` [compound 122, 4-Chloro-2-ethylsulfanyl-N-[(3-fluorophenyl)-methyl]-7-(trifluoromethyl)-quinoline-3-carboxamide], the EC50 was determined as 65 nM and the Emax at 1 µM was 171%.

On to `CCSc1nc2cc(C(F)(F)F)ccc2c(C)c1C(=O)NCc1cccc(C(C)(C)C)c1` [compound 56], for which the EC50 was determined as 67 nM and the Emax at 1 µM was determined as 97%.

Consider `O=C(NCc1cccs1)c1cc2ccccc2nc1SCCCc1ccc(F)cc1` [compound 6], for which a half-maximal response (EC50) required 1220 nM and the Emax at 1 µM was found to be 111%.

As for `CCSc1nc2ccccc2cc1C(=O)NCc1cccs1` [compound 7, 2-(Ethylthio)-N-(2-thienylmethyl)-3-quinoline carboxamide], it took 1350 nM to reach a half-maximal effect (EC50).

For the compound `CCSc1nc2cc(C(F)(F)F)ccc2c(C)c1C(=O)NCc1ccc(C(C)(C)C)cc1` [compound 36], a half-maximal effect (EC50) was put at 136 nM and the Emax at 1 µM turned out to be 93%.

For the compound `CCSc1nc2cc(C(F)(F)F)ccc2c(C)c1C(=O)NCc1cc(C)cs1` [compound 70], it took 1460 nM to reach a half-maximal effect (EC50) and the Emax at 1 µM turned out to be 114%.

As for `CCSc1nc2cc(C(F)(F)F)ccc2c(C)c1C(=O)NCc1cc(F)c(F)c(F)c1` [compound 33], it took 140 nM to reach a half-maximal effect (EC50) and the Emax at 1 µM amounted to 162%.

Consider `CCSc1nc2cc(C(F)(F)F)ccc2c(C)c1C(=O)NCc1ccccn1` [compound 41], for which the half-maximal effective concentration (EC50) was 1100 nM and the Emax at 1 µM came out at 121%.

With `CCSc1nc2cc(C(F)(F)F)ccc2c(C)c1C(=O)NCc1cccc(Cl)c1` [compound 79], a half-maximal effect (EC50) was put at 124 nM and the Emax at 1 µM came out at 116%.

On to `CCCCSc1nc2cc(C(F)(F)F)ccc2c(C)c1C(=O)NCc1cccc(F)c1` [compound 49], for which the half-maximal effective concentration (EC50) worked out at 74 nM and the Emax at 1 µM was found to be 151%.

`CCSc1nc2cc(C(F)(F)F)ccc2c(C)c1C(=O)NCc1ccccc1C` [compound 81]: the Emax at 1 µM stood at 28%.

`CSc1nc2cc(C(F)(F)F)ccc2c(C)c1C(=O)NCc1ccc(F)cc1` [compound 115]: the EC50 amounted to 136 nM and the Emax at 1 µM came to 150%.

As for `CCSc1nc2cc(C(F)(F)F)ccc2c(C)c1C(=O)NCc1ccc(F)cc1F` [compound 32], the EC50 came to 59 nM and the Emax at 1 µM turned out to be 70%.

In the case of `CCSc1nc2cc(C(C)(C)C)ccc2c(C)c1C(=O)NCc1cccc(F)c1` [compound 95], the EC50 came out at 627 nM and the Emax at 1 µM stood at 96%.

As for `O=C(NCc1cccs1)c1cc2ccccc2nc1SCCSc1ccc(F)cc1` [compound 24], the Emax at 1 µM was found to be 27%.

For `CCSc1nc2cc(C(F)(F)F)ccc2c(C)c1C(=O)NCc1ccccc1OC` [compound 84], the Emax at 1 µM stood at 25%.

As for `CCSc1nc2cc(C(F)(F)F)ccc2c(C)c1C(=O)NCC1CC2CCC1C2` (centres unmarked) [compound 73], the Emax at 1 µM is 25%.

For `CCSc1nc2cccc(F)c2c(C)c1C(=O)NCc1cccc(F)c1` [compound 123], the Emax at 1 µM was 8%.

For the compound `CCSc1nc2cc(C(F)(F)F)ccc2c(C)c1C(=O)NCCC1CCCC1` [compound 53], the EC50 was 256 nM and the Emax at 1 µM came to 73%.

The values are drawn from patent US20100234372A1, “SUBSTITUTED 2-MERCAPTOQUINOLINE-3-CARBOXAMIDES AS KCNQ2/3 MODULATORS” (GRUNENTHAL GMBH, priority 2009, published 2010).
